Laboratory results published in ChEMBL document CHEMBL1275576, “In vitro activity of tomopenem (CS-023/RO4908463) against anaerobic bacteria” (Antimicrob Agents Chemother, 2009).

What was measured:
Format in all cases: functional
Schaalia odontolytica = test: Antimicrobial activity against Actinomyces odontolyticus GAI 91002 by agar dilution method in presence of 5% laked sheep blood
Fusobacterium nucleatum [1] = test: Antimicrobial activity against Fusobacterium nucleatum ATCC 25586 by agar dilution method in presence of 5% laked sheep blood
Bacteroides uniformis = test: Antimicrobial activity against Bacteroides uniformis by agar dilution method in presence of 5% laked sheep blood
Lactobacillus brevis = test: Antimicrobial activity against Lactobacillus brevis subsp. brevis JCM 1059 by agar dilution method in presence of 5% laked sheep blood; conditions: Levilactobacillus brevis
Prevotella denticola = test: Antimicrobial activity against Prevotella denticola GAI 5490 by agar dilution method in presence of 5% laked sheep blood
Clostridium septicum = test: Antimicrobial activity against Clostridium septicum ATCC 12464 by agar dilution method in presence of 5% laked sheep blood
Bacteroides caccae = test: Antimicrobial activity against Bacteroides caccae by agar dilution method in presence of 5% laked sheep blood
Parvimonas micra = test: Antimicrobial activity against Parvimonas micra by agar dilution method in presence of 5% laked sheep blood
Clostridioides difficile [2] = test: Antimicrobial activity against Clostridium difficile by agar dilution method in presence of 5% laked sheep blood
[3] = tested on: Staphylococcus saccharolyticus; test: Antimicrobial activity against Staphylococcus saccharolyticus ATCC 14953 by agar dilution method in presence of 5% laked sheep blood
Clostridium perfringens = test: Antimicrobial activity against Clostridium perfringens by agar dilution method in presence of 5% laked sheep blood
[4] = tested on: Lactobacillus acidophilus; test: Antimicrobial activity against Lactobacillus acidophilus JCM 1132 by agar dilution method in presence of 5% laked sheep blood
Prevotella buccae = test: Antimicrobial activity against Prevotella buccae ATCC 33574 by agar dilution method in presence of 5% laked sheep blood; conditions: Segatella buccae
[5] = tested on: Prevotella melaninogenica; test: Antimicrobial activity against Prevotella melaninogenica JCM 6325 by agar dilution method in presence of 5% laked sheep blood; conditions: ATCC 25845
Prevotella sp. = test: Antimicrobial activity against Prevotella sp. by agar dilution method in presence of 5% laked sheep blood
Bacteroides fragilis [6] = test: Antimicrobial activity against Bacteroides fragilis by agar dilution method in presence of 5% laked sheep blood
Bacteroides fragilis [7] = test: Antimicrobial activity against Bacteroides fragilis GAI 7955 by agar dilution method in presence of 5% laked sheep blood
[8] = tested on: Peptostreptococcus anaerobius; test: Antimicrobial activity against Peptostreptococcus anaerobius ATCC 27337 by agar dilution method in presence of 5% laked sheep blood
Fusobacterium mortiferum = test: Antimicrobial activity against Fusobacterium mortiferum by agar dilution method in presence of 5% laked sheep blood
Porphyromonas gingivalis [9] = test: Antimicrobial activity against Porphyromonas gingivalis ATCC 33277 by agar dilution method in presence of 5% laked sheep blood
Prevotella intermedia = test: Antimicrobial activity against Prevotella intermedia by agar dilution method in presence of 5% laked sheep blood
Eubacterium limosum = test: Antimicrobial activity against Eubacterium limosum by agar dilution method in presence of 5% laked sheep blood
Eggerthella lenta [10] = test: Antimicrobial activity against Eggerthella lenta ATCC 25559 by agar dilution method in presence of 5% laked sheep blood
[11] = Antimicrobial activity against Veillonella dispar ATCC 17748 by agar dilution method in presence of 5% laked sheep blood
[12] = tested on: Paeniclostridium sordellii; test: Antimicrobial activity against Clostridium sordellii ATCC 9714 by agar dilution method in presence of 5% laked sheep blood; conditions: Paraclostridium sordellii
Porphyromonas gingivalis [13] = test: Antimicrobial activity against Porphyromonas gingivalis by agar dilution method in presence of 5% laked sheep blood
[14] = tested on: Sutterella wadsworthensis; test: Antimicrobial activity against Sutterella wadsworthensis ATCC 51579 by agar dilution method in presence of 5% laked sheep blood
[15] = tested on: Prevotella melaninogenica; test: Antimicrobial activity against Prevotella melaninogenica by agar dilution method in presence of 5% laked sheep blood
[16] = tested on: Porphyromonas asaccharolytica; test: Antimicrobial activity against Porphyromonas asaccharolyticus by agar dilution method in presence of 5% laked sheep blood
[17] = tested on: Bacteroides thetaiotaomicron; test: Antimicrobial activity against Bacteroides thetaiotaomicron by agar dilution method in presence of 5% laked sheep blood
Lacticaseibacillus casei = test: Antimicrobial activity against Lactobacillus casei subsp. casei JCM 1134 by agar dilution method in presence of 5% laked sheep blood
Prevotella corporis = test: Antimicrobial activity against Prevotella corporis GAI 91000 by agar dilution method in presence of 5% laked sheep blood
[18] = tested on: Parabacteroides distasonis; test: Antimicrobial activity against Parabacteroides distasonis by agar dilution method in presence of 5% laked sheep blood
[19] = tested on: Peptoniphilus asaccharolyticus; test: Antimicrobial activity against Peptoniphilus asaccharolyticus by agar dilution method in presence of 5% laked sheep blood
Eggerthella lenta [20] = test: Antimicrobial activity against Eggerthella lenta by agar dilution method in presence of 5% laked sheep blood
Finegoldia magna = test: Antimicrobial activity against Finegoldia magna by agar dilution method in presence of 5% laked sheep blood
Clostridioides difficile [21] = test: Antimicrobial activity against Clostridium difficile GAI 10029 by agar dilution method in presence of 5% laked sheep blood
Odoribacter splanchnicus = test: Antimicrobial activity against Odoribacter splanchnicus by agar dilution method in presence of 5% laked sheep blood
[22] = tested on: Streptococcus constellatus; test: Antimicrobial activity against Streptococcus constellatus ATCC 27923 by agar dilution method in presence of 5% laked sheep blood
Porphyromonas uenonis = test: Antimicrobial activity against Porphyromonas uenonis by agar dilution method in presence of 5% laked sheep blood
Phocaeicola vulgatus = test: Antimicrobial activity against Bacteroides vulgatus by agar dilution method in presence of 5% laked sheep blood
[23] = tested on: Bacteroides eggerthii DSM 20697; test: Antimicrobial activity against Bacteroides eggerthii ATCC 27754 by agar dilution method in presence of 5% laked sheep blood
Fusobacterium nucleatum [24] = test: Antimicrobial activity against Fusobacterium nucleatum by agar dilution method in presence of 5% laked sheep blood
[25] = tested on: Lactiplantibacillus plantarum; test: Antimicrobial activity against Lactobacillus plantarum JCM 1149 by agar dilution method in presence of 5% laked sheep blood

C[C@@H](O)[C@H]1C(=O)N2C(C(=O)O)=C(S[C@H]3C[C@@H](C(=O)N4CC[C@H](NC(=O)CNC(=N)N)C4)N(C)C3)[C@H](C)[C@H]12 [TOMOPENEM]
0.5 µg/mL: MIC (Schaalia odontolytica) | MIC50 (Bacteroides uniformis) | MIC50 (Bacteroides caccae) | MIC90 (Prevotella sp.) | MIC [8] | MIC90 (Fusobacterium mortiferum) | MIC50 (Eubacterium limosum) | MIC90 (Eubacterium limosum) | MIC (Eggerthella lenta [10]) | MIC [14] | MIC90 [15] | MIC50 [17] | MIC50 [18] | MIC50 (Eggerthella lenta [20]) | MIC90 (Eggerthella lenta [20]) | MIC50 (Odoribacter splanchnicus) | MIC50 (Phocaeicola vulgatus) | MIC90 (Fusobacterium nucleatum [24])
4 µg/mL: MIC90 (Bacteroides uniformis) | MIC90 (Bacteroides caccae) | MIC (Bacteroides fragilis [7]) | MIC90 [18] | MIC90 (Odoribacter splanchnicus) | MIC90 (Phocaeicola vulgatus)
≤ 0.015 µg/mL: MIC50 (Clostridium perfringens) | MIC50 (Fusobacterium mortiferum) | MIC [12] | MIC50 [19] | MIC50 (Fusobacterium nucleatum [24])
0.06 µg/mL: MIC (Prevotella denticola) | MIC [3] | MIC90 (Clostridium perfringens) | MIC50 (Prevotella intermedia) | MIC90 (Porphyromonas gingivalis [13]) | MIC90 [16] | MIC (Prevotella corporis) | MIC90 [19] | MIC50 (Finegoldia magna) | MIC90 (Porphyromonas uenonis) | MIC [25]
0.25 µg/mL: MIC (Lactobacillus brevis) | MIC [4] | MIC (Prevotella buccae) | MIC50 (Bacteroides fragilis [6]) | MIC [22]
2 µg/mL: MIC (Fusobacterium nucleatum [1]) | MIC90 (Clostridioides difficile [2]) | MIC90 [17] | MIC (Clostridioides difficile [21])
0.125 µg/mL: MIC50 (Parvimonas micra) | MIC90 (Parvimonas micra) | MIC [5] | MIC50 (Prevotella sp.) | MIC90 (Prevotella intermedia) | MIC50 [15] | MIC90 (Finegoldia magna) | MIC [23]
1 µg/mL: MIC50 (Clostridioides difficile [2]) | MIC90 (Bacteroides fragilis [6]) | MIC (Lacticaseibacillus casei)
0.03 µg/mL: MIC (Clostridium septicum) | MIC (Porphyromonas gingivalis [9]) | MIC [11] | MIC50 (Porphyromonas gingivalis [13]) | MIC50 [16] | MIC50 (Porphyromonas uenonis)

CCC[C@@H]1C[C@@H](C(=O)N[C@@H]([C@H]2O[C@H](SC)[C@H](O)[C@@H](O)[C@H]2O)[C@H](C)Cl)N(C)C1 [CLINDAMYCIN]
1 µg/mL: MIC [4] | MIC (Bacteroides fragilis [7]) | MIC [12]
0.25 µg/mL: MIC (Schaalia odontolytica) | MIC [8] | MIC (Eggerthella lenta [10]) | MIC [22] | MIC [25]
≤ 0.03 µg/mL: MIC (Lactobacillus brevis) | MIC (Prevotella denticola) | MIC (Clostridium septicum) | MIC (Prevotella buccae) | MIC (Porphyromonas gingivalis [9]) | MIC [11] | MIC (Prevotella corporis) | MIC [23]
0.125 µg/mL: MIC [3]
16 µg/mL: MIC [14]
2 µg/mL: MIC (Lacticaseibacillus casei)
> 128 µg/mL: MIC (Clostridioides difficile [21])
